{"source": "paper PMC3834219", "about": "(Plant molecular biology, 2013)", "target": "T1, GmPP2C1 (Glycine max, UniProt K7LYY2)", "T1 sequence (K7LYY2 1-536)": "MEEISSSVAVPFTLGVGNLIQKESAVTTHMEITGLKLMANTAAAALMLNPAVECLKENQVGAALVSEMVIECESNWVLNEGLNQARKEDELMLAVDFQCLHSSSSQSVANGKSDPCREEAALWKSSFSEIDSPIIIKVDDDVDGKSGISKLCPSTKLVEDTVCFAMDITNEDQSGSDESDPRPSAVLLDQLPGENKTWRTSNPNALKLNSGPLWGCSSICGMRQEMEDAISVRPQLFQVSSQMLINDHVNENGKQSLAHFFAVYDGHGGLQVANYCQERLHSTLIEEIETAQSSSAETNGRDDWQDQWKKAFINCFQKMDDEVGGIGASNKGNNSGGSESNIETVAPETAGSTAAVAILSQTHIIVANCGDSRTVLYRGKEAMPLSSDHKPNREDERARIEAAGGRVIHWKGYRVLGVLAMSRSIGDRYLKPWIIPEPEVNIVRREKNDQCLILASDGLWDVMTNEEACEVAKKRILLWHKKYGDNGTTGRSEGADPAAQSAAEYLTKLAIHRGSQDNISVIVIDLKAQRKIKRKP", "assay": "pNPP hydrolysis at […] nm", "format": "biochemical", "conditions": "1 μM His-GmPP2C1, 50 mM pNPP, pH 7.5, 25 mM Mg(OAc)2, 2 mM MnCl2", "data": [{"compound": "O=[N+]([O-])c1ccc(OP(=O)(O)O)cc1", "note": "[p-nitrophenyl phosphate]", "values": [{"measurement": "pNPP hydrolysis at 405 nm", "value": "GmPP2C1 phosphatase activity was measured using the colorimetric substrate p-nitrophenyl phosphate (pNPP, Sigma)"}]}]}
